A word on the Ki: it is the equilibrium dissociation constant of an inhibitor or competing ligand from its target. As a reminder, the Kd is the free concentration of one partner at which half of the binding sites on the other are occupied at equilibrium, for simple one-to-one binding.

Series [1] addresses T1, SV2A (Macaca fascicularis, UniProt Q4R4X3).
T1 construct: The current study evaluates [^18F]UCB-H pharmacokinetics in healthy NHPs; from tissue; host or cells: brain of living healthy cynomolgus monkeys (in vivo PET)
The series is described as follows: Displacement PET studies of [^18F]UCB-H. The format is in vivo, cynomolgus monkeys (Macaca fascicularis). As for the experimental part: All four non-human primates (NHP) underwent a 2-h (2 h) test and retest PET scan; two NHP underwent an additional 4-h (4 h) retest PET scan. Three NHP underwent one 4-h (4 h) displacement PET scan. Arterial blood sampling was performed during test and retest scans with PET imaging spaced by at least 3 weeks between each scan. To this end, the femoral artery opposite to the saphenous vein used for radioligand injection was cannulated. For the 2-h (2 h) scans, we collected in total 28 blood samples of 1 mL: 16 samples during the first 5 min followed by […] every 5 min and […] every 10 min. For the 4 h scans, we collected an additional 6 samples every 20 min during the last two hours (34 samples in total). Larger samples (2 – 3 mL) were collected at 5, 15, 30, 60, 90, 120 min (2 h) and at 180, 240 min (4 h) for metabolite analysis. Displacement of [^18F]UCB-H was done by intravenous (IV) administration 90 min after [^18F]UCB-H injection of a bolus of 30 mg/kg LEV, or of 80 µg/kg (≈250 nmol/kg) or 5 mg/kg (≈15 µmol/kg) of cold [^19F]-UCB-H. Full experimental design of all NHP is outlined in Additional file 1: Table 1.
Solvents and LEV (C8H14N2O2; MM 170.21 g/mol) were obtained at Sigma-Aldrich® (France), and [^19F]-UCB-H (C16H12F4N2O; MM 324.28 g/mol) was synthesised as previously described. Injectable solutions of [^19F]-UCB-H for displacement studies were prepared with a mixture of Tetrahydrofuran (THF), Médialipide® and glucose at 2.5% as previously described. LEV was dissolved in a glucose solution of 2.5% to reach a concentration of 90 mg/mL.
PET image analysis was performed using PMOD software version 3.8 (PMOD Technologies Ltd., Zurich, Suisse). After individual co-registration of PET-MR images, a cynomolgus atlas published by Ballanger and coworkers was normalized to PET images to extract time activity curves in different brain regions. Volumes of interest (VOI) were cerebral white matter (16.7 cm^3), striatum (0.24 cm^3), thalamus (0.89 cm^3), cerebellum (3.83 cm^3), frontal—(2.50 cm^3), parietal—(5.35 cm^3), and temporal (8.22 cm^3) cortex, and whole brain (72.2 cm^3) as a composite region of all regions in the atlas. [^18F]UCB-H pharmacokinetics were evaluated by analyzing the time activity curves of the test- and retest scans using 1- and 2-tissue compartment models (unconstrained and constrained with global K1/k2 coupled fit across all regions, further referred to as 2TCM and 2TCM-c), and Logan graphical analysis with a fixed t* at 60 min [33] using the arterial plasma input function corrected for radio-metabolites to derive the volume of distribution in each region. Percentage standard error (%SE) was estimated from the theoretical parameter covariance matrix. Only reliable estimates (%SE less than 25%) were included in the current analyses. For the three drug studies, percent displacement of the total activity in the whole brain was estimated relative to an average baseline constructed from the two 4 h baseline studies. Briefly, Standardized Uptake Value (SUV) time activity curves (TACs) were calculated for the two baseline and the three displacement studies. Then, each curve was normalized to the SUV at t = 90 min, corresponding to the timeframe immediately before the administration of the drugs in the displacement studies. Baseline curves were averaged and the percent displacement of total activity was calculated as (baseline-displacement)/baseline at a given time post drug administration (see “Results”).

Series [2] relates to SV2A. Also noted: method as in PMID 30084043, PMID 31728839. The note with it: cited from earlier work.
Series [3] deals with SV2A. More on the design: method as in PMID 31728839. To be noted: human brain; read-out: in vitro Ki; cited from earlier work.
The target in series [4] is SV2A. More on the design: method as in PMID 26848175. The note with it: NHP; read-out: in vivo KD; cited from earlier work.

T1 sequence (Q4R4X3 whole entry): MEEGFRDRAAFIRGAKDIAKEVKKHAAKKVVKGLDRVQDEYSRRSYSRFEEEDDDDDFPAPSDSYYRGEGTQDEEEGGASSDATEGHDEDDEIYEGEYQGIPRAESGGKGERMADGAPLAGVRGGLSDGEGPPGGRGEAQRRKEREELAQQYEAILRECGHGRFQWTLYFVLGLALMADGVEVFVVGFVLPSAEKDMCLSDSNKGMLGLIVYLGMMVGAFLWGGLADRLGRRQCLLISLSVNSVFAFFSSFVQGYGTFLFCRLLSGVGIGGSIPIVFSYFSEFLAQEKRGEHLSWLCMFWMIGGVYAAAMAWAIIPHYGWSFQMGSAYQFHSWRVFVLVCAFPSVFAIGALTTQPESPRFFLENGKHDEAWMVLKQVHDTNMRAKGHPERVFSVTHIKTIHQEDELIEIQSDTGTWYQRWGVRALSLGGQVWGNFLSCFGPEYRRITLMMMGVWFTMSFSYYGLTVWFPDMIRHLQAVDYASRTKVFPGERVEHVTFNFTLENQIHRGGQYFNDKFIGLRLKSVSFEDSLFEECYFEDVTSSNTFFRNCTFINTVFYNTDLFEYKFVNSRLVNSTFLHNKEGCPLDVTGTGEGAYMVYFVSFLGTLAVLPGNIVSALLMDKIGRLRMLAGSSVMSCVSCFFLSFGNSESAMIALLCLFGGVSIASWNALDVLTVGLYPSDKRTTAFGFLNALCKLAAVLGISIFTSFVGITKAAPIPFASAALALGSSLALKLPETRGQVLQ

Regarding `CC[C@@H](C(N)=O)N1CCCC1=O` [LEV, levetiracetam, reference compound], the “displacement of [^18F]UCB-H total uptake” value on SV2A [1] (30 mg/kg i.v. at 90 min, estimated 150 min (2.5 h) after injection) is given as ~ 40%. Further, the receptor occupancy at 30 mg/kg at SV2A [1] (cynomolgus monkey, iv, read-out: SV2A occupancy) was 75 to 80%.
With `Cc1cnccc1CN1C[C@@H](c2cc(F)cc([18F])c2)CC1=O` [[^18F]MNI-1126], the “affinity” value with SV2A [2] is “high affinity”.
Turning to `Cc1cnccc1CN1CC(c2cc(F)cc([18F])c2)CC1=O` (stereo not drawn) [[^18F]MNI-1128], the “affinity” value in the series on SV2A [2] was “low affinity”.
Consider `O=C1CC(c2cc(F)c(F)c(F)c2)CN1Cc1ccncc1F` (stereo not drawn) [[^19F]UCB-H], for which the Ki on SV2A [3] was 9 nM. Also, the “displacement of [^18F]UCB-H total uptake” value at SV2A [1] (5 mg/kg i.v. at 90 min, estimated 35 min after injection of cold compound) is given as 50%. Further, the SV2A occupancy expected on SV2A [1] (5 mg/kg, KD 30 nM) is on record as greater than 98%. The molecule also returned a maximum free concentration in brain at SV2A [1] (after 5.0 mg/kg, based on brain uptake curves and fND ~6%) of roughly 2.5 µM. Besides, at SV2A [4], the Kd is 30 nM.

These data come from article PMC8026785, “The pharmacokinetics of [^18F]UCB-H revisited in the healthy non-human primate brain” (EJNMMI Research, 2021).
